This passage reports IC50, cMyc gene expression and GBP-1 gene expression results from patent US20120225889A1, “USE OF MACROCYCLIC LACTONE DERIVATIVES FOR THE TREATMENT OF INFLAMMATORY DISORDERS” (PIRAMAL LIFE SCIENCES LIMITED, priority 2010, published 2012).

For orientation: IC50 means the concentration at which inhibition is half-maximal.

Like-named read-outs stand apart in the source and are kept apart here.

For one experiment, the system named is TNF-α. The experiment in a line: Cytokine release assay in hPBMCs: TNF-α. Particulars: Homo sapiens. In kind it is cell-based. How it is done:
(§1) hPBMCs were obtained from healthy donors by centrifugation of heparinized venous blood over Ficoll/Hypaque solution (Histopaque-1077, Sigma, USA). Isolated hPBMCs were suspended in RPMI 1640 culture medium supplemented with 10% FBS and seeded at a density of 50,000 cells/well in a 96-well plate (Nunc, USA). The cells were incubated at 37° C., 5% CO2 for a period of 24 h. These cells were used for the lymphocyte proliferation as well as cytokine release assay.
(§2) The plated cells were treated with different concentrations of the test compound (prepared as mM stock in DMSO and diluted with DMSO to achieve the following final concentrations in the assay: 100, 10, 1, 0.1, 0.01, 0.001, 0.0001, 0.00001 and 0.000001 μM) and incubated for 30 min. The cells were then stimulated with PHA (prepared as 1 mg/mL stock in RPMI 1640 culture medium and used at a final concentration of 5 μg/mL). FK506 was used as a standard. The plates were incubated at 37° C., 5% CO2 for 48 h. The cytokines in the supernatant collected were detected using ELISA kit (BD biosciences, USA). The cytokines evaluated in the assay were TNF-α, IL-2, IL-6, and IFN-γ.

Another experiment relates to IFN-γ. Kind of experiment: Cytokine release assay in hPBMCs: IFN-γ. In kind it is cell-based. Particulars: Homo sapiens. How it is done:
as §1, §2

Another experiment deals with cMyc. The experiment in a line: Gene expression profile using RTQ-PCR: cMyc. Format: cell-based, human. Particulars: 3 μM. How it is done:
(§3) The effect of the compound of example 7 was measured in stimulated untreated cells from the monocytic cell line (THP-1), human monocytes and synovial cells from rheumatoid arthritis patient. The effect of the compound in the THP-1 cell line was measured in terms of gene expression and was expressed as fold changes as compared to the cell stimulated control with no drug treatment.
(§4) THP-1 cells, human monocytes and synovial cells were treated with compound of example 7 or vehicle (0.5% DMSO). Total RNA isolation using a commercial RNA extraction kit (Qiagen Corporation, Germany) The first-strand cDNA was synthesized from total RNA using first strand cDNA synthesis kit from Invitrogen Corporation (California, USA). This was followed by real time quantitative polymerase chain reaction (RTQ PCR) using gene specific primers and standard thermal program of initial denaturation at 95° C. for 5 min and cycles of 95° C. for 10 seconds, followed by 60° C. for 30 seconds (Realplex PCR machine from Eppendorf, Germany). Quantitative measurement of products made during PCR cycles was normalized against a housekeeping gene (Actin) and was used to measure the gene expression as fold changes as compared to respective control.

A further experiment deals with GBP-1. Kind of experiment: Gene expression profile using RTQ-PCR: GBP-1. Particulars: 3 μM, 12 h. Format: cell-based, human. The protocol:
as §3, §4

In the case of `C/C=C/C(O)C(C)/C=C/C(=N\O)C(C)C(O)C(C)C1OC(=O)/C(OC)=C/C(C)=C/C(C)C(O)C(CC)C(O)C(C)C/C(C)=C/C=C/C1OC` (stereo not drawn) [Compound of example 7, (3Z,5E,13E,15E)-18-((5Z,6E,10E)-3,9-Dihydroxy-5-(hydroxymino)-4,8-dimethyldodeca-6,10-dien-2-yl)-9-ethyl-8,10-dihydroxy-3,17-dimethoxy-5,7,11,13-tetramethyl oxacyclooctadeca-3,5,13,15-tetraen-2-one], the IC50 in the experiment with TNF-α (Table 3: PHA-PMA induced hPBMC's, 48 h, read-out: TNF-α IC50) amounted to 0.02 µM; in the experiment on TNF-α (Table 4: mitogen stimulated production from hPBMC's, read-out: TNF-α (IC50 μM)), 0.07 µM; with IFN-γ (Table 3: PHA-PMA induced hPBMC's, 48 h, read-out: IFN-γ IC50) it was 0.02 µM; with IFN-γ (Table 4: mitogen stimulated production from hPBMC's, read-out: IFN-γ (IC50 μM)), 0.1 µM. Besides, the cMyc gene expression in the experiment on cMyc (Human monocytes, 3 h, ± SE, N = 3) is listed as −1.9 + 1.7 log fold change; with cMyc (Synovial cells, 12 h, N = 1), −0.5 log fold change; in the experiment with cMyc (THP-1 cells, 12 h, ± SE, N = 3), −1.1 log fold change. Besides, the GBP-1 gene expression in the experiment on GBP-1 (Synovial cells, N = 1) is recorded as −1.5 log fold change; in the experiment on GBP-1 (THP-1 cells, ± SE, N = 3) it was −1.6 + 1.0 log fold change.
